Measurements reported in patent US10722591B2, “Cleavable conjugates of TLR7/8 agonist compounds, methods for preparation, and uses thereof” (Dynavax Technologies Corporation, priority 2017, dated 2020).

Key:
[1] = tested on: CT26 colon carcinoma; assay: Tumor growth inhibition, weekly intratumoral doses, CT26 tumor bearing mice (Example B4); format: in vivo, Balb/c mice; settings: 500 ng IMDQ equivalent mass intratumorally on days 9, 16, 23 and 28; single flank tumor
Protocol: Compound No. 64-70 is a non-cleavable variant. All in vivo procedures were conducted in accordance with approved Institutional Animal Care and Use Committee (IACUC) protocols. The animals were housed in a facility that is accredited by the Association for Accreditation and Laboratory Animal Care (AALAC, Frederick, Md.). Wild-type female Balb/c mice (15-20 g) were obtained from Envigo (Hayward, Calif.) and acclimated for 2-3 days prior to use.
(§1) On experimental day 0, mice were anesthetized with 1% isoflurane and 80,000 CT26 tumor cells in 200 μL of RMPI-1640 culture media plus 2.5% FBS were injected subcutaneously in the right flank. Tumors were allowed to grow until they were ˜50 mm^3, at which point animals were assigned to groups, 8 mice per group, to begin treatment. […] Tumor sizes were measured twice weekly from day 7 through day 30 with calipers, with tumor volumes calculated using the following formula: length, multiplied by width, multiplied by width, divided by 2.

[2] = tested on: CT26 colon carcinoma; assay: Tumor growth inhibition, weekly intratumoral doses, CT26 tumor bearing mice (Example B3); format: in vivo, Balb/c mice; settings: intratumoral on days 8, 16, 23; 1 μg molar equivalent of IMDQ (64-53a, 64-54a) or 0.63 ug (64-10a); to day 27
Protocol: The effect of weekly intratumoral doses of Compound No. 64-53a, Compound No. 64-54a, Compound No. 64-10a, or a PBS vehicle control on tumor growth inhibition was assessed in syngeneic CT26 colon carcinoma-bearing Balb/c mice. Compound No. 64-53a differs from Compound No. 64-53 in that it contains a monomethyl group adjacent to the disulfide cleavable linker rather than the disulfide variant. Compound No. 64-54a differs from Compound No. 64-54 in that it contains a (PEG)4 to the N-terminus of the peptide cleavable linker rather than a (PEG)12 variant. […] Compound No. 64-10a is the free amine (i.e., unconjugated) form of Compound No. 64-10, the structure of which is shown in Table 1. All in vivo procedures were conducted in accordance with approved Institutional Animal Care and Use Committee (IACUC) protocols. The animals were housed in a facility that is accredited by the Association for Accreditation and Laboratory Animal Care (AALAC, Frederick, Md.). […]
as §1, with “On” for “On experimental”, “flank.” for “flank. Tumors were allowed to grow until they were ˜50 mm^3, at which point animals were assigned to groups, 8 mice per group, to begin treatment.”, “27” for “30”

[3] = molecular target: T1, TLR7 (Homo sapiens, UniProt Q9NYK1); assay: TLR7 in vitro potency; format: cell-based
T1 sequence (Q9NYK1 27-1049): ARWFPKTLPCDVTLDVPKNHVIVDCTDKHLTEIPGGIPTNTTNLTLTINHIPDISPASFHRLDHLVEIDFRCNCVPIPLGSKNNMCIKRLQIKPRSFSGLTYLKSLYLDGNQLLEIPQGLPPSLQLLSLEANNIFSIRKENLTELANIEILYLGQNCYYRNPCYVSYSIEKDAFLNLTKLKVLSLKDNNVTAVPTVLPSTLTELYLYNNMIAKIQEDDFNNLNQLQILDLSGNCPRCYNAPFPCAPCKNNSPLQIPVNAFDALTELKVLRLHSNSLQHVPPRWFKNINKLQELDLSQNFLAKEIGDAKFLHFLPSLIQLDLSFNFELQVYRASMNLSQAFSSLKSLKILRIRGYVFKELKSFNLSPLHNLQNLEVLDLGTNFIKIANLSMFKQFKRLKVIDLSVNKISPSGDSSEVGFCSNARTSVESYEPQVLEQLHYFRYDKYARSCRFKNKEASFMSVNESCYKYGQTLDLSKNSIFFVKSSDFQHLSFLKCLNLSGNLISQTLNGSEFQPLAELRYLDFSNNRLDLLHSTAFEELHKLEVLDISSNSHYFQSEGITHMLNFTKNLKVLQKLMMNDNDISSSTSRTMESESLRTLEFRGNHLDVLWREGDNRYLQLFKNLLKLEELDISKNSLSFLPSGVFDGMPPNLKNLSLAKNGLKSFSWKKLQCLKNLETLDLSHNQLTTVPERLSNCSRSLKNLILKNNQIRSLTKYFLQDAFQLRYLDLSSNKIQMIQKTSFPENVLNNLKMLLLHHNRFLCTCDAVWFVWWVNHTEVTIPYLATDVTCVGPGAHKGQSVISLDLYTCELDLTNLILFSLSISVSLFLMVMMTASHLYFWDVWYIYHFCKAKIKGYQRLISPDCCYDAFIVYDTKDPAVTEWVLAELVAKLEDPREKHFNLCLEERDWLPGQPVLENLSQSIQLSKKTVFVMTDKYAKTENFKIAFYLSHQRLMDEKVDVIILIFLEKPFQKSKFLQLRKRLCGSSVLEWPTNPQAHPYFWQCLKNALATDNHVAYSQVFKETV

[4] = tested on: CD86; assay: APC maturation marker CD86 by flow cytometry after subcutaneous footpad injection; format: in vivo, BALB/c mice; settings: 1.8 μg IMDQ molar equivalents, both hind footpads, 24 hours
Protocol: Popliteal lymph nodes and spleens were harvested after 24 hours, and single cell suspensions were prepared for subsequent staining and analysis by flow cytometry using antibodies to cell surface markers to identify different APCs and lymphocyte cell populations.

[5] = tested on: IL-6, IL-12p40, and TNFα protein levels; assay: Serum cytokine levels by ELISA after single subcutaneous footpad injection; format: in vivo, BALB/c mice; settings: 2 hours after footpad injection
Protocol: (§2) Blood was drawn after 2 hours, serum samples were prepared and the IL-6, IL-12p40, and TNFα protein levels were measured by ELISA. Lower limit of quantification (LLOQ) for each of these assays was 31.3 pg/mL, and the dotted lines on graphs represent the LLOQ multiplied by serum dilution factor. Popliteal lymph nodes (draining node for the site of injection) were removed after 6 hours and stored in RNAlater (Qiagen, Hilden Del.) prior to tissue homogenization and isolation of RNA for gene expression analysis by TaqMan® using a StepOnePlus Real Time PCR system (Applied Biosystems, Foster City Calif.). Gene expression data are expressed as fold increase in gene induction relative to PBS control (mean±SEM).

[6] = tested on: interferon-related genes (TLR7-mediated gene induction); assay: Gene expression in popliteal lymph nodes after single subcutaneous footpad injection; format: in vivo, BALB/c mice; settings: 0.04 μg
Protocol: as §2

[7] = tested on: CT26 colon carcinoma; assay: Tumor growth inhibition in combination with anti-PD-1, two contralateral CT26 tumors (Example B6); format: in vivo, Balb/c mice; settings: 500 ng IMDQ equivalent intratumorally in combination with anti-PD-1 250 μg intraperitoneally
Protocol: All in vivo procedures were conducted in accordance with approved Institutional Animal Care and Use Committee (IACUC) protocols. The animals were housed in a facility that is accredited by the Association for Accreditation and Laboratory Animal Care (AALAC, Frederick, Md.). Wild-type female Balb/c mice (15-20 g) were obtained from Envigo (Hayward, Calif.) and acclimated for 2-3 days prior to use. On experimental day 0, mice were anesthetized with 1% isoflurane, and 80,000 CT26 tumor cells in 200 uL of RMPI-1640 culture media plus 2.5% fetal bovine serum were injected subcutaneously in both the right and left flanks. Tumors (left and right) were allowed to grow until day 9, when the right and left flank tumor sizes had reached approximately 35 mm^3, at which point mice were injected intraperitoneally with 250 μg of anti-PD-1 antibody formulated in PBS or a PBS vehicle control. The anti-PD-1 treatments were repeated on experimental days 12, 16, 20, 23, and 28. On experimental day 15, when the right (injected) and left (distal) flank tumors had reached approximately 100 mm^3, mice were randomized into treatment groups with 10 mice per group. […] Tumor sizes were measured twice weekly from days 15 through day 30 with calipers, with tumor volumes calculated using the formula: length, multiplied by width, multiplied by width, divided by 2.

SMILES: CCCCc1nc2c(N)nc3ccccc3c2n1Cc1ccc(CNC(=O)OCc2ccc(SCCNC(=O)CN=[N+]=[N-])cc2)cc1 [Compound No. 64-70]
- CT26 tumor growth inhibition [1]: no CT26 tumor growth inhibition

SMILES: CCCCCCCCCCCCCC(=O)NCc1ccc(Cn2c(CCCC)nc3c(N)nc4ccccc4c32)cc1 [Compound No. 64-10a, N-(4-((4-amino-2-butyl-1H-imidazo[4,5-c]quinolin-1-yl)methyl)benzyl)tetradecanamide]
- CT26 tumor growth control compared to the vehicle control [2]: significant CT26 tumor growth control
- EC50 [3]: 2 nM
- in vitro and in vivo TLR7 agonist potency relative to IMDQ ([3]; data not shown): equal in vitro and in vivo TLR7 agonist potency to IMDQ

SMILES: CCCCc1nc2c(N)nc3ccccc3c2n1Cc1ccc(CN)cc1 [IMDQ, 1-(4-aminomethylbenzyl)-2-butyl-1H-imidazo[4,5-c]quinolin-4-amine]
- expression level of APC maturation marker CD86 in popliteal lymph nodes [4]: induced activation/maturation of cells
- expression level of CD86 on APCs in the spleen [4]: comparable
- serum IL-12p40 ([5]; 1 μg): levels above background
- serum IL-6 ([5]; 5 μg): elevated levels
- serum IL-12p40 ([5]; 5 μg): elevated levels
- serum TNFα ([5]; 5 μg): elevated levels
- gene expression response in popliteal lymph nodes at the lowest dose [6]: induced gene expression
- tumor growth control in the injected tumor [7]: comparable improvements in tumor growth control over either agent administered individually
- tumor growth control in the uninjected tumor [7]: comparable improvements in tumor growth control over either agent administered individually
